From paper PMC12077799, “Fragment-based drug discovery for transthyretin kinetic stabilisers using a novel capillary zone electrophoresis method” (PLOS One, 2025)
Read-outs that look alike come from different tables or passages of the source. Each block holds one compound with its values, some of them ahead of it.

How the values were obtained:
[1] = target: T1, TTR in undiluted normal human reference plasma (Homo sapiens, UniProt P02766); assay: 125I-T4 displacement assay in neat normal human plasma; type: binding; settings: for IC50: neat normal human plasma, 4-parameter logistic fit
T1 construct: The TTR in plasma was immunoprecipitated by sheep anti-human prealbumin polyclonal antibody; tissue Precision Biologic Inc., Nova Scotia, Canada
Source text: The assay was adapted from one described previously. Briefly, test ligand and ^125I-T4 (Perkin Elmer Inc., Waltham, MA) were mixed with undiluted normal human reference plasma (Precision Biologic Inc., Nova Scotia, Canada). The TTR in plasma was immunoprecipitated by sheep anti-human prealbumin polyclonal antibody (The Binding Site Group Ltd., Birmingham, UK). The immunoprecipitate was washed with buffer and their radioactivity measured with a 2470 WIZARD automatic gamma counter (Perkin Elmer Inc., Waltham, MA). […] Percentage of total radioligand binding for samples of different ligand concentration was then calculated as follows: […]
To calculate IC50 values, percentage of total radioligand binding at different concentration points were entered in SigmaPlot™ 11.0. Titration curves were done in triplicates with a minimum of 5 data points fitted by 4-Parameter Logistic Function.

TTR = target: T2, TTR (Homo sapiens, UniProt P02766); assay: Isothermal titration calorimetry (ITC); type: binding; settings: for Kd: 25 °C, PBS pH 7.8, 3% DMSO; for Kd1 LE (Ligand Efficiency, ΔG/N) / Kd2 LE (Ligand Efficiency, ΔG/N): N = number of non-hydrogen atoms
T2 construct: purchased SCIPAC (Sittingbourne, Kent, UK) P171-1
Description: All ITC experiments were conducted on an iTC200 calorimeter (GE Healthcare), and the settings were 25 °C, stir at 1000 RPM, 1–2 μL injection spaced with 100–150 seconds, reference power: 6 μcal/sec. Isotherms were fitted using ORIGIN 7 software (OriginLab, MA, USA). To prepare TTR ITC protein solution (5 mL), purified and freeze-dried human TTR was weighted and dissolved in 310 μL of pure water. The reconstituted protein solution was then desalted by spin column (Bio-Rad, Bio-Gel P6) and the eluted volume was transferred to a 15mL falcon tube. The protein solution was further diluted with 10x Phosphate Buffered Saline (PBS, 500 μL), DMSO (150 μL) and water, (f/c: 4.3 mM Na2HPO4, 137 mM NaCl, 2.7 mM KCl, 1.47 mM KH2PO4, 3% DMSO v/v, TTR 19.35–25 μM, pH 7.8). UV A260/280 was measured to obtain the actual protein concentration using a calculated extinction coefficient of 18450 M^-1 cm^-1. To prepare ligand ITC solution (1 mL), 30 μL of ligand stock in DMSO was diluted with 10x PBS (100 μL) and water (f/c: 4.3 mM Na2HPO4, 137 mM NaCl, 2.7 mM KCl, 1.47 mM KH2PO4, 3% DMSO v/v, Ligand 280–600 μM, pH 7.8).

[2] = target: T3, Human transthyretin (TTR) (Homo sapiens, UniProt P02766); assay: Co-crystallisation of TTR-ligand complex, X-ray hit confirmation; type: binding; settings: for Confirmed by X-ray: fragment seen in ligand-omitted difference density at >= 2σ in one or both binding sites, full or partial density; for ligand electron density, binding sites occupied in co-crystal structure: in words
T3 construct: purchased SCIPAC (Sittingbourne, Kent, UK) P171-1
Description: Crystals were grown by vapor diffusion using a published crystallisation cocktail (100 mM HEPES pH 7.5, 200 mM CaCl2, 28% v/v PEG400) at 21 °C [29]. The hanging drop contained 1 μL of crystallisation cocktail, 1 μL of diluted ligand and 1 μL of TTR protein solution (85 μM). […] Crystals were harvested and flash cooled in a N2 cryostream or dipped into liquid ethane without cryoprotectant. Data was collected at Diamond Light Source (Oxon, UK) beamline I24, I04 or I04-1 (Pilatus 6M or ADSC Q315) or the European Synchrotron Radiation Facility (ESRF, Grenoble, France) beamline ID29 (Pilatus 6M-F) or in-house (Bruker X8 Diffractometer with APEXII CCD detector). Crystal unit cell was initially indexed by software MOSFLM [30] and LABELIT [31] within the EDNA [32] automatic data processing workflow. Diffraction image integration was performed by XDS [33] and reflection intensities were scaled by SCALA [34] or by PROTEUM2 if collected in-house. Phases were obtained by molecular replacement method using PHASER [35], 1DVQ from the Protein Data Bank (PDB) was used as the search model. Atomic positions of the initial model were refined by REFMAC5 [36]. Model building and ligand fitting was completed using COOT [37]. Model graphics were generated using CCP4MG [38]. Crystallographic statistics of all structures can be found in S4 Table.

[3] = target: T4, Human transthyretin (TTR) thyroxine binding sites (Homo sapiens, UniProt P02766); assay: TTR CZE Free Probe Peak Height Restoration (FPPHR) assay, 8-ANS displacement; settings: for FPPHR % tested at 10 µM: compound 10 µM in Running Buffer; for FPPHR % at 50 μM: compound 50 μM in Running Buffer; for FPPHR % at 300 μM ± SD (N = 3): fragment 300 μM in Running Buffer, injected 30 μM 8-ANS / 20 μM TTR, hit cut-off 10%
T4 construct: purchased SCIPAC (Sittingbourne, Kent, UK) P171-1
Description: CZE assays development and fragment screening were performed on a Beckman P/ACE MDQ capillary electrophoresis system (Beckman Coulter Inc., Brea, CA) operated by 32 Karat™ software. All capillaries (Polymicro Technologies, Phoenix, AZ) used were internally coated with polyvinyl alcohol and of around 30 cm in length, 75 microns in internal diameter. Capillary temperature was maintained at 20 °C by recirculating fluorinated fluid coolant during electrophoresis. Sample trays and buffer trays temperature were maintained at 4°C and ambient respectively. For every electrophoretic run, the capillary was pressure rinsed and prefilled with electrophoresis buffer also known as background electrolyte (termed as Running Buffer hereafter) before injection. After each electrophoretic run, the capillary was rinsed with Running Buffer and H2O by pressure (20 psi for 1 minute). Three Running Buffers (RB), A: 20 mM Tris pH 7.5, 1 mM KCl, 1.62 mM NaCl; B: 20 mM HEPES pH 7.0, 2 mM CaCl2 and C: 20 mM HEPES pH 7.0, 2 mM CaCl2, 1% DMSO were used. All CE traces were analysed by 32Karat™ Software with a built-in automatic peak integration algorithm.
Control 1 Inject Buffer (IB) containing 30 μM 8-ANS was prepared by mixing 1 μL of 3 mM 8-ANS DMSO stock with 99 μL of Running Buffer B in a 0.2 mL PCR tube. Control 2 Inject Buffer was prepared by mixing 1μL of 3 mM 8-ANS DMSO stock with 20 μL of 100 μM tetrameric TTR stock in Running Buffer B and 79 μL of Running Buffer B. The final concentrations (f/c) were 8-ANS 30 μM, TTR 20 μM and 1% DMSO v/v.
The maximum Free Probe Peak Height (Control 1 Peak Height) was determined by Outlet Injection (see Fig 1) of Control 1 with an injection pressure of 0.5 psi for 5 seconds (equivalent to ≈ 20–30 nL). An identical injection of Control 2 provides the minimum Free Probe Peak Height (Control 2 Peak Height) enabling calculation of % of bound and unbound, i.e., free 8-ANS. To determine the 8-ANS peak height in Control 1 and Control 2, the capillary was prefilled with Buffer C and electrophoresis carried out at 10 kV (Normal Polarity, Fig 1) with UV monitoring at 230 nm. For displacement analysis, ligand DMSO stock was diluted in Buffer B and used to fill the capillary as the Running Buffer. Electrophoresis commenced after injection of Control 2, thus the injected 8-ANS-TTR complex migrates inside a capillary filled with the test ligand. The observed 8-ANS peak height is defined as Sample Peak Height and the displaced 8-ANS can be calculated as:
\% of Free Probe Peak Height Restoration= Sample Peak Height−Control 2 Peak Height/Control 1 Peak Height−Control 2 Peak Height

[4] = target: TTR thyroxine binding sites; settings: cited from earlier work
[5] = target: T4, Human transthyretin (TTR) thyroxine binding sites; assay: TTR CZE Free Probe Peak Height Restoration (FPPHR) assay, 8-ANS displacement; settings: 30 μM 8-ANS with 20 μM TTR
[6] = read-out: Mean 125I-T4 IC50 ± SD (N = 3)

Compound: Cc1n[nH]c(-c2ccnc3ccccc23)n1 [Compound 71575026]
- Confirmed by X-ray [2]: Yes 9H7N
- IC50 [1, 6]: 238 ± 118 µM
- FPPHR % tested at 10 µM ([3]; 10% minimum for a binder): 17.07% tested at 10 µM

Compound: Nc1cc(Cl)cc(Cl)c1 [3,5-Dichloroaniline, reference compound]
- ligand electron density, binding sites occupied in co-crystal structure [2]: only observed in one site
- IC50 [1]: 802 ± 319 µM
- 125I-T4 displacement at plateau ([1]; neat plasma, exemplary curve): 60%
- total radioligand binding at plateau ([1]; neat plasma, exemplary curve): around 40%
- change of free 8-ANS peak height with compound in the Running Buffer ([3]; in words, concentrations (e.g. Tafamidis 10 µM, Diphenylamine 250 μM, Verapamil 300 µM, Acetazolamide 500 µM)): significant free 8-ANS peak height increase

Compound: O=S(=O)(O)c1cccc2cccc(Nc3ccccc3)c12 [Compound 8-ANS, 8-Anilino-1-Naphthalenesulfonic acid]
- Kd ([4]; read-out: Kd1, 8-ANS at TTR thyroxine binding sites): 1.05 µM
- Kd ([4]; read-out: Kd2, 8-ANS at TTR thyroxine binding sites): 4.79 µM
- Kd ([4]; read-out: previously reported Kd values): 1 to 5 µM
- % of 8-ANS bound to TTR, deduced from free 8-ANS peak heights ([3]; 30 μM 8-ANS with 20 μM TTR): around 60%
- % of 8-ANS bound to TTR, deduced from free 8-ANS peak areas [5]: ~35%

Compound: O=C(O)c1ccccc1Nc1ccccc1 [N-Phenylanthranilic Acid, reference compound]
- ligand electron density, binding sites occupied in co-crystal structure [2]: occupied both sites
- IC50 [1]: 180 ± 61.8 µM

Compound: N#Cc1c[nH]c2ccccc12 [SFL000013]
- Confirmed by X-ray [2]: Yes 2 Sites, Full, 9H7G
- FPPHR % at 50 μM ([3]; 10% minimum for a binder): 18.13%
- FPPHR % at 100 μM ([3]; compound 100 μM in Running Buffer, 10% minimum for a binder): 21.53%
- FPPHR % at 300 μM ± SD (N = 3) [3]: 23.08 ± 6.08%

Compound: Cc1n[nH]c(C)c1-c1cccc2cccnc12 [Compound 94320297]
- Confirmed by X-ray [2]: Yes 9H7K
- IC50 [1, 6]: 18.9 ± 6.14 µM
- Kd (TTR; read-out: ITC Kd1 ± SD (N = 3)): 0.064 µM
- Kd (TTR; read-out: ITC Kd2 ± SD (N = 3)): 0.91 µM
- Kd1 LE (Ligand Efficiency, ΔG/N) (TTR): 0.58 kcal/mol
- Kd2 LE (Ligand Efficiency, ΔG/N) (TTR): 0.48 kcal/mol
- FPPHR % tested at 10 µM ([3]; 10% minimum for a binder): 33.32% tested at 10 µM
- FPPHR % at 50 μM ([3]; 10% minimum for a binder): 59.77%

Compound: Nc1nc(-c2cccc3cccnc23)c2cn[nH]c2n1 [Compound 96299361]
- Confirmed by X-ray [2]: Yes 9H7M
- IC50 [1, 6]: 105 ± 16.8 µM
- FPPHR % tested at 10 µM ([3]; 10% minimum for a binder): 23.20% tested at 10 µM

Second part, the compound after the results:

- IC50 [1, 6]: 20.4 ± 4.13 µM
- Kd (TTR; read-out: ITC Kd1 ± SD (N = 3)): 0.0497 µM
- Kd (TTR; read-out: ITC Kd2 ± SD (N = 3)): 0.331 µM
- Kd1 LE (Ligand Efficiency, ΔG/N) (TTR): 0.59 kcal/mol
- Kd2 LE (Ligand Efficiency, ΔG/N) (TTR): 0.52 kcal/mol
Compound: Cc1n[nH]c(Cl)c1-c1cccc2cccnc12 [SEL101928]

- Confirmed by X-ray [2]: Yes 9H7J
- IC50 [1, 6]: 488 ± 107 µM
Compound: Cc1n[nH]c(N)c1-c1ccccc1 [SFL001561]

- Confirmed by X-ray [2]: Yes 9H7L
- IC50 [1, 6]: 100 ± 11 µM
- FPPHR % at 50 μM ([3]; 10% minimum for a binder): 36.17% tested at 50 µM
Compound: Nc1n[nH]c2nccc(-c3ccccc3)c12 [CDS014361]

- Confirmed by X-ray [2]: Yes 1 Site, Partial, 9H7A
- ligand electron density, binding sites occupied in co-crystal structure [2]: only observed in one site
- 125I-T4 displacement at maximal concentration ([1]; 14.3mM, no plateau reached): ≈ 60%
- IC50 [1]: 8880 ± 3670 µM
- FPPHR % at 300 μM ± SD (N = 3) [3]: 12.18 ± 6.63 (N = 4) %
Compound: NS(=O)(=O)c1cc(Cl)cc(Cl)c1 [SFL000006, 3,5-Dichlorobenzenesulphonamide]
